The text below walks through data of patent publication US9686985B2, “Fungicide N-cycloalkyl-N-bicyclicmethylene-carboxamide derivatives” (BAYER INTELLECTUAL PROPERTY GMBH, priority 2012, dated 2017).

Each structure is given as a SMILES string.

The nature of data set [1]: log P by HPLC on reversed-phase column (EEC Directive 79/831 Annex V.A8). Type of data set: physicochemical. Conditions: Table 1; HPLC C18, 40° C., 0.1% aqueous formic acid and acetonitrile gradient. The essentials: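 Compounds are eluted at 40° C using 0.1% aqueous formic acid and acetonitrile in a linear gradient from 10% to 90% acetonitrile. Unbranched alkan-2-ones bearing 3 to 16 carbons with known log P serve as calibrants. Each log P is interpolated linearly from retention times of the two bracketing alkanones.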

The test system of data set [2] is Sphaerotheca fuliginea. Description: Example A: in vivo preventive test on Sphaerotheca fuliginea (cucumber). The procedure:
Example A: In Vivo Preventive Test on Sphaerotheca fuliginea (Cucumber) [table] To produce a suitable preparation of active compound, 1 part by weight of active compound is mixed with the stated amounts of solvent and emulsifier, and the concentrate is diluted with water to the desired concentration. To test for preventive activity, young plants are sprayed with the preparation of active compound at the stated rate of application. One day after this treatment, the plants are inoculated with an aqueous spore suspension of Sphaerotheca fuliginea. Then the plants are placed in a greenhouse at approximately 23° C. and a relative atmospheric humidity of approximately 70%.

Data set [3] has as its system Sphaerotheca fuliginea. The data set can be described thus: Example B: in vivo preventive test on Sphaerotheca fuliginea (powdery mildew on cucurbits). As to conditions: table B; 500 ppm; gherkin plants; grading 12 days after contamination. Summed up:
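Gherkin plants (Vert petit de Paris) sprayed with compound at the Z11 cotyledon stage, then inoculated 24 h later with Sphaerotheca fuliginea spores (100 000 spores per mL). Kept at about 20° C., 70-80% relative humidity; % efficacy versus solvent-treated controls graded 12 days after inoculation.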

For another data set, the system named is Alternaria solani. Description: Example C: in vivo preventive test on Alternaria solani (tomato). As for the experimental part: Example C: In Vivo Preventive Test on Alternaria solani (Tomato) [table] To produce a suitable preparation of active compound, 1 part by weight of active compound is mixed with the stated amounts of solvent and emulsifier, and the concentrate is diluted with water to the desired concentration. To test for preventive activity, young plants are sprayed with the preparation of active compound at the stated rate of application. One day after this treatment, the plants are inoculated with an aqueous spore suspension of Alternaria solani. The plants remain for one day in an incubation cabinet at approximately 22° C. and a relative atmospheric humidity of 100%. Then the plants are placed in an incubation cabinet at approximately 20° C. and a relative atmospheric humidity of 96%.

The test system of data set [4] is Botrytis cinerea. Description: Example H: in vivo preventive test on Botrytis cinerea (beans). Conditions: table H, 100 ppm, lesion size 2 days after inoculation. As for the experimental part:
Example H: In Vivo Preventive Test on Botrytis cinerea (Beans)
To produce a suitable preparation of active compound, 1 part by weight of active compound is mixed with the stated amounts of solvent and emulsifier, and the concentrate is diluted with water to the desired concentration.
To test for preventive activity, young plants are sprayed with the preparation of active compound. After the spray coating has dried on, 2 small pieces of agar covered with growth of Botrytis cinerea are placed on each leaf. The inoculated plants are placed in a darkened chamber at 20° C. and a relative atmospheric humidity of 100%.
2 days after the inoculation, the size of the lesions on the leaves is evaluated. 0% means an efficacy which corresponds to that of the untreated control, while an efficacy of 100% means that no disease is observed.

The next data set has as its system Septoria tritici. The data set can be described thus: Example K: in vivo preventive test on Septoria tritici (wheat). As to conditions: table K, 500 ppm, evaluated 21 days after inoculation. As for the experimental part:
(§1) Example K: In Vivo Preventive Test on Septoria tritici (Wheat) [table] To produce a suitable preparation of active compound, 1 part by weight of active compound or active compound combination is mixed with the stated amounts of solvent and emulsifier, and the concentrate is diluted with water to the desired concentration. To test for preventive activity, young plants are sprayed with the preparation of active compound or active compound combination at the stated rate of application. After the spray coating has been dried, the plants are sprayed with a spore suspension of Septoria The plants remain for 48 hours in an incubation cabinet at approximately 20° C. and a relative atmospheric humidity of approximately 100% and afterwards for 60 hours at approximately 15° C. in a translucent incubation cabinet at a relative atmospheric humidity of approximately 100%. The plants are placed in the greenhouse at a temperature of approximately 15° C. and a relative atmospheric humidity of approximately 80%.

In another data set the test system is Puccinia triticina. Description: Example O: in vivo preventive test on Puccinia triticina (wheat). As to conditions: table O, 500 ppm, evaluated 8 days after inoculation. The procedure: as §1, with “O:” for “K:”, “Puccinia triticina” for “Septoria tritici”, “Puccinia triticina.” for “Septoria”, “approximately” for “approximately 100% and afterwards for 60 hours at approximately 15° C. in a translucent incubation cabinet at a relative atmospheric humidity of approximately”, “20°” for “15°”

For data set [5], the system named is Botrytis cinerea. The data set can be described thus: Example S: in vivo preventive test on Botrytis cinerea (grey mould). As to conditions: table S; 500 ppm; gherkin plants; grading 4 to 5 days after contamination. As for the experimental part:
Example S: In Vivo Preventive Test on Botrytis cinerea (Grey Mould) […] Gherkin plants (“Vert petit de Paris” variety), sown in starter cups on a 50/50 peat soil pozzolana substrate and grown at 24° C., are treated at the Z11 cotyledon stage by spraying with the active ingredient prepared as described above. Plants, used as controls, are treated with the mixture of acetone/tween/DMSO/water not containing the active material. After 24 hours, the plants are contaminated by spraying the cotyledons with an aqueous suspension of cryopreserved Botrytis cinerea spores (50 000 spores per mL). The spores are suspended in a nutrient solution composed of 10 g/L of PDB, 50 g/L of D-Fructose, 2 g/L of NH4NO3 and 1 g/L of KH2PO4. The contaminated gherkin plants are incubated at 17° C. and at 90% relative humidity. Grading (% of efficacy) is carried out 4 to 5 days after the contamination, in comparison with the control plants.

Where [6] appears, read: table A1, 100 ppm of active ingredient, evaluated 7 days after inoculation.
The mark [7] stands for this setting: table A2, dose 100 ppm, comparison with WO-2010/086311 compounds.
[8] abbreviates: table C1, 100 ppm, evaluated 7 days after inoculation.

For the compound `CC(C1CCCc2ccccc21)N(C(=O)c1c(C(F)F)nn(C)c1F)C1CC1` (centres unmarked) [I.23], in data set [1], the logP came out at 4.08. Also, the Efficacy in the data set with Sphaerotheca fuliginea [2] (setting [6]) is reported as 94%; in the data set with Sphaerotheca fuliginea [2] (setting [7]), 94%; with Sphaerotheca fuliginea [3] it was 100%; in the data set with Alternaria solani (setting [8]) it was 90%; in the data set with Alternaria solani (table C2, dose 100 ppm, comparison with WO-2010/086311 compound), 90%; in the data set on Alternaria solani (table C2, dose 100 ppm, comparison with WO-2010/086311 compound, listed as 1.23), “at least 90%”. In addition, the Efficacy in the data set on Botrytis cinerea [4] worked out at 99%; with Septoria tritici it was 100%; with Puccinia triticina, 75%; in the data set on Botrytis cinerea [5], 85%.

In data set [1], `Cn1nc(C(F)F)c(C(=O)N(CC2CC(C)(C)Oc3ccccc32)C2CC2)c1F` (centres unmarked) [I.33] returned a lipophilicity (logP) of 3.53. Moreover, the Efficacy with Sphaerotheca fuliginea [2] (setting [6]) worked out at 94%; in the data set on Sphaerotheca fuliginea [2] (setting [7]), 94%; in the data set on Sphaerotheca fuliginea [3], 100%; in the data set with Alternaria solani (setting [8]), 100%; in the data set on Botrytis cinerea [4], 96%; with Septoria tritici, 100%. The figures for the Efficacy in the data set with Puccinia triticina and in the data set with Botrytis cinerea [5] were 100% and 80%, respectively.

One may read the logP as the decadic logarithm of the partition coefficient of the neutral form, usually between octanol and water.
